According to the Kinase Knowledgebase extract (Sharma et al. 2016):

Target: CDK2 (human) (UniProt P24941)
Test: Enzyme Assay

| SMILES | IC50 [nM] |
| --- | --- |
| COc1ccc(Nc2nccc(-c3sc(C)nc3C)n2)cc1O | 140 |
| COc1nc(C)c(-c2ccnc(Nc3ccc(C)c(I)c3)n2)s1 | 700 |
| Cc1nc(N)sc1-c1ccnc(Nc2ccc(C(F)(F)F)cc2)n1 | 680 |
| COc1nc(C)c(-c2ccnc(Nc3cccc(O)c3)n2)s1 | 120 |
| COc1nc(C)c(-c2ccnc(Nc3ccc(F)c(C)c3)n2)s1 | 130 |
| COc1nc(C)c(-c2ccnc(Nc3ccc(Cl)cc3)n2)s1 | 110 |
| COc1nc(C)c(-c2ccnc(Nc3ccc(F)c([N+](=O)[O-])c3)n2)s1 | 120 |
| COc1nc(C)c(-c2ccnc(Nc3ccc(N(C)C)cc3)n2)s1 | 750 |
| Cc1nc(C)c(-c2ccnc(Nc3ccc(CCO)cc3)n2)s1 | 470 |
| COc1nc(C)c(-c2ccnc(Nc3ccc(Cl)c(C)c3)n2)s1 | 1180 |
| COc1nc(C)c(-c2ccnc(Nc3ccc(O)cc3)n2)s1 | 50 |
| COc1ccc(Nc2nccc(-c3sc(OC)nc3C)n2)cc1 | 250 |
| COc1nc(C)c(-c2ccnc(Nc3cccc([N+](=O)[O-])c3)n2)s1 | 60 |
| COc1nc(C)c(-c2ccnc(Nc3ccc(F)cc3)n2)s1 | 120 |
| COc1nc(C)c(-c2ccnc(Nc3ccc(C)c([N+](=O)[O-])c3)n2)s1 | 110 |
